In US4675405A, “Quinoline compounds as antiallergic and antithrombotic agents” (American Home Products Corporation, priority 1986, dated 1987):

Legend:
[1] = system: LTD4 induced bronchospasm; experiment: in vivo inhibition of LTD4 induced bronchospasm in guinea pigs; parameters: species or system guinea pig; conditions: for % Inhibition (Statistical Average), Overflow Volume at 1 min. / % Inhibition (Statistical Average), Overflow Volume at 3 min. / % Inhibition (Statistical Average), Overflow Volume at 5 min.: 10 minutes before LTD4
Method: The assay of this Example measures the in vivo ability of the compounds of the invention to inhibit the bronchospasm induced in guinea pigs by the exogenously administered leukotrienes C4 and/or D4. This assay is essentially a measure of the SRS-A antagonist properties of the compounds tested.
Male Hartley strain guinea pigs (350-600 g) are anesthetized with pentobarbital sodium (50 mg/kg, i.p.). The jugular vein is cannulated for injection of drugs and the carotid artery for monitoring blood pressure. The trachea is cannulated for artificial ventilation by a miniature Starling pump and for indirect measurement of respiratory volume changes as described infra. Additional pentobarbital sodium (15 mg/kg, i.v.) is administered to arrest spontaneous respiration. Submaximal bronchoconstrictor responses are established in control animals by varying the dose-levels of leukotriene. Intravenous dose-levels for LTC4 range from 1 to 2 μg/kg and for LTD4 the range is from 0.3 to 1 μg/kg. The aerosol bronchoprovocation dose for LTC4 is generated from 1.6 μM solution and for LTD4 from a 2.0 μM solution.
Test drugs are administered either intravenously, intragastrically, by aerosol or orally at 1 or 10 minutes before induction of bronchospasm by administration of either LTC4 or LTD4 at the predetermined dose-levels. Aerosols of soluble drugs or leukotrienes are produced in-line for 10 seconds only by actuation of an ultrasonic nebulizer (Monaghan). Aerosolized drug dosage is expressed in terms of solution concentration and by a fixed aerosol exposure time (approximately 10 seconds). Control animals receive saline in place of drug.
Respiratory volume changes are determined by a calibrated piston whose travel is recorded, via a linear transducer, on a Beckman Dynograph recorder. Maximal bronchoconstrictor volume is determined by clamping off the trachea at the end of the experiment. Overflow volumes at 1, 3 and 5 minutes are obtained from the recorded charts.
The overflow volume at 1, 3 and 5 minutes is expressed as a percentage of maximal bronchoconstriction. Combined group values are used from each of these time intervals to determine the inhibitory effect of drugs. [formula] Students t-test for unpaired data is used to determine statistical significance. Dose reponse curves are generated and ED50 doses are interpolated from the regression lines.
Results for compounds of the invention in this assay, using LTD4 for induction of bronchospasm, are given below:
Two other compounds of this invention are tested in this assay and the results are expressed based on the following calculations which employ the values obtained for the overflow volumes at 1, 3 and 5 minutes:
Area under the volume overflow curve (AUC) is estimated, using the overflow values at 1, 3 and 5 minutes, and expressed as a percentage of the maximal overflow AUC (equation 1): [formula] Drug effects are reported as percent inhibition of % max AUC values obtained from appropriate control animals (equation 2): [formula]
Student's t-test for unpaired data is used to determine statistical significance (p<0.05). IC50 values can also be determined by inverse prediction from linear regression lines through points between 10 and 90% inhibition.

[2] = system: TxB2 synthesis (cyclooxygenase); experiment: inhibition of synthesis of the cyclooxygenase oxidation product TxB2 by rat PMN; assay type: cell-based
Method: (§1) Peritoneal PMN are obtained from female Wistar rats (150-250 g) that received an i.p. injection of 6% glycogen (10 ml). After 24 hours, rats are killed by CO2 asphyxiation and peritoneal cells are harvested by peritoneal lavage using Ca^++ and Mg^++ free Hanks' balanced salt solution (HBSS). The peritoneal exudate is centrifuged at 400 g for 10 minutes. After centrifugation, the lavaged fluid is removed and the cell pellet is resuspended in HBSS containing Ca^++ and Mg^++ and 10 mM L-cysteine at a concentration of 2×10^7 cells/ml. To 1 ml portions of cell suspension, test drugs or vehicle are added and incubated at 37° C. for 10 minutes. Following this preincubation, the calcium ionophore (10 μM), A23187, is added together with 0.5 μCi [^14 C] arachidonic acid and further incubated for 10 minutes. The reaction is stopped by the addition of ice cold water (3 ml) and acidifying to pH 3.5. Lipoxygenase products are then extracted twice into diethyl ether. The pooled ether extracts are evaporated to dryness under nitrogen and the residue is redissolved in a small volume of methanol and spotted on aluminum backed pre-coated thin layer chromatographic plates. The samples are them co-chromatographed with authentic reference 5-HETE, 12-HETE and 5,12-diHETE in the solvent system--hexane:ether:acetic acid (50:50:3). After chromatography, the areas associated with 5-HETE and 5,12-diHETE standards are identified by autoradiography, cut out and quantitated by liquid scintillation.
The procedure of Example 5 is also employed for the determination of the ability of the compounds of the invention to inhibit the synthesis of the arachidonic acid cyclooxygenase oxidation product TxB2.
In this assay, the procedure of Example 5 is carried out as described. However, in order to determine cyclooxygenase activity, the samples are cochromatographed with authentic reference TxB2 in the solvent system ethyl acetate:formic acid (80:1) and the upper phase of ethyl acetate:isoctane:acetic acid:water (110:50:20:100). After chromatography, the areas associated with TxB2 standard are identified by autoradiography, cut out and quantitated by liquid scintillation techniques.
The results are calculated as in Example 5.

[3] = system: 5-HETE and LTB4 synthesis (lipoxygenase); experiment: inhibition of synthesis of lipoxygenase products 5-HETE and LTB4 by rat PMN (product not separately stated); assay type: cell-based
Method: (§2) This is especially true with respect to 5,12-diHETE, which is also denoted as LTB4 [see Ford-Hitchinson, J. Roy. Soc. Med., 74, 831 (1981)]. The assay of this Example measures the ability of the compounds of the inventin to inhibit the synthesis of 5HETE and LTB4 by rat glycogen-elicited polymorphonuclear leukocytes.
as §1, with “The reaction is stopped by the addition of ice cold water (3 ml) and acidifying to pH 3.5. Lipoxygenase products are then extracted twice into diethyl ether. The pooled ether extracts are evaporated to dryness under nitrogen and the residue is redissolved in a small volume of methanol and spotted on aluminum backed pre-coated thin layer chromatographic plates. The samples are them co-chromatographed with authentic reference 5-HETE, 12-HETE and 5,12-diHETE in the solvent system--hexane:ether:acetic acid (50:50:3).” left out
(§3) Results are expressed as % inhibition of [^14 C]5-HETE and [^14 C]LTB4 (5,12-HETE)synthesis. […]

[4] = system: 5-HETE synthesis (lipoxygenase); experiment: inhibition of 5-HETE synthesis by rat glycogen-elicited polymorphonuclear leukocytes; assay type: cell-based; conditions: for IC50: Leukocyte, rat PMN, A23187 + [14C]arachidonic acid, read-out: 50% Inhibitory Concentration (IC50) 5-HETE
Method: as §2, §1
Results are expressed as % inhibition of [^14 C]5-HETE and [^14 C]LTB4 (5,12-HETE)synthesis. [formula]
Testing compounds of the invention in this assay and using the antioxident 3-amino-1-[m-(trifluoromethyl)phenyl]-2-pyrazoline (BW755C) as a standard, the following results are obtained.

[5] = system: LTB4 synthesis (lipoxygenase); experiment: inhibition of LTB4 (5,12-diHETE) synthesis by rat glycogen-elicited polymorphonuclear leukocytes; assay type: cell-based; conditions: Leukocyte; rat PMN, A23187 + [14C]arachidonic acid; read-out: 50% Inhibitory Concentration (IC50) LTB4
Method: as §2
as §1, with “The reaction is stopped by the addition of ice cold water (3 ml) and acidifying to pH 3.5. Lipoxygenase products are then extracted twice into diethyl ether. The pooled ether extracts are evaporated to dryness under nitrogen and the residue is redissolved in a small volume of methanol and spotted on aluminum backed pre-coated thin layer chromatographic plates. The samples are them co-chromatographed with authentic reference 5-HETE, 12-HETE and 5,12-diHETE in the solvent system--hexane:ether:acetic acid (50:50:3).” left out
as §3

[6] = system: ovalbumin induced bronchospasm; experiment: in vivo inhibition of ovalbumin induced bronchospasm mediated by endogenous mediators in sensitized guinea pigs; parameters: species or system guinea pig; conditions: 10 minutes before i.v. ovalbumin challenge
Method: The assay of this Example measures the in vivo ability of the compounds of the invention to inhibit the bronchospasm induced in guinea pigs by endogenous mediators of the bronchoconstriction.
Male Hartley strain guinea pigs weighing 250-350 g are sensitized to chicken ovalbumin (OA) (10 mg i.p.) on days 1 and 3 and used starting on day 26. The animals are anesthetized with pentobarbital sodium (50 mg/kg, i.p.), bilateral vagotomy is performed, and the jugular vein is cannulated for injection of drugs and the carotid artery for monitoring blood pressure. The trachea is cannulated for artificial ventilation by miniature Starling pump and for indirect measurement of respiratory volume changes as described, infra. Succinylcholine (2 mg/kg, i.v.) is administered to arrest spontaneous respiration. […]
Respiratory volume changes are determined by a calibrated piston whose travel is recorded, via a linear transducer, on a Beckman Dynograph recorder. Maximal bronchoconstrictor volume is determined by clamping off the trachea at the end of the experiment. Overflow volumes at minutes 1, 3 and 5 are obtained from the recorded charts.
Area under the volume overflow curve (AUC) is estimated, using the overflow values at 1, 3 and 5 minutes, and expressed as a percentage of the maximal overflow AUC (equation 1): [formula] […]

**Q.** For CCS(=O)(=O)Nc1cccc(OCc2ccc3ccccc3c2)c1 [Example 2C, N-[3-[(2-Naphthalenyl)methoxy]phenyl]ethane sulfonamide], which “% Inhibition (Statistical Average), Overflow Volume at 1 min.” value ([1]; 50 mg/kg intraduodenal) is on record?
**A.** The value was 61%.

**Q.** And the “% Inhibition (Statistical Average), Overflow Volume at 3 min.” value ([1]; 50 mg/kg intraduodenal)?
**A.** The value was 41%.

**Q.** What about the “% Inhibition (Statistical Average), Overflow Volume at 5 min.” value ([1]; 50 mg/kg intraduodenal) of the same compound?
**A.** Its value is 53%.

**Q.** Which results are given for CCCS(=O)(=O)Nc1cccc(OCc2cc3ccccc3s2)c1 [Example 2E, N-[3-[(2-Benzo[b]thienyl]methoxy]phenyl]-1-propane sulfonamide]?
**A.** 50% Inhibition at 50 μm (TxB2 synthesis) [2]: + (inhibition of >50%); >50% Inhibitory at 50 μm [3]: + (inhibition of >50%)

**Q.** For CCS(=O)(=O)Nc1cccc(OCc2cc3ccccc3s2)c1 [Example 2D, N-[3-[(2-Benzo[b]thienyl)methoxy]phenyl]ethane sulfonamide], which “% Inhibition of Max AUC” value ([1]; 50 mg/kg intraduodenal, 10 minutes before induction of bronchospasm) is on record?
**A.** Its value is 13%.

**Q.** And the “50% Inhibition at 50 μm (TxB2 synthesis)” value [2]?
**A.** The value was “+ (inhibition of >50%)”.

**Q.** And the “>50% Inhibitory at 50 μm” value [3]?
**A.** Its value is “+ (inhibition of >50%)”.

**Q.** Which “% Inhibition (Statistical Average), Overflow Volume at 1 min.” value ([1]; 50 mg/kg intraduodenal) does the source give for CCS(=O)(=O)Nc1cccc(OCc2ccc3ccccc3n2)c1 [Example 2A, N-[3-[(2-Quinolinyl)methoxy]phenyl]ethane sulfonamide] here?
**A.** Its value is 88%.

**Q.** And the “% Inhibition (Statistical Average), Overflow Volume at 3 min.” value ([1]; 50 mg/kg intraduodenal)?
**A.** Its value is 86%.

**Q.** What about the “% Inhibition (Statistical Average), Overflow Volume at 5 min.” value ([1]; 50 mg/kg intraduodenal) of the same compound?
**A.** The value was 81%.

**Q.** What about the “% Inhibition at 100 μm (TxB2 synthesis)” value [2] of the same compound?
**A.** The value was 56%.

**Q.** And the “% Inhibition at 100 μm (first value, 5-HETE by column order)” value ([4]; 100 μm)?
**A.** The value was 93%.

**Q.** For NC1=NN(c2cccc(C(F)(F)F)c2)CC1 [BW755C, 3-amino-1-[m-(trifluoromethyl)phenyl]-2-pyrazoline, reference compound], which IC50 [5] is on record?
**A.** The IC50 was 30 µM.

**Q.** What about the IC50 [4] of the same compound?
**A.** Its IC50 is 43 µM.

**Q.** What does the source list for CCCCS(=O)(=O)Nc1cccc(OCc2ccc3ccccc3n2)c1 [Example 2B, N-[3-[(2-Quinolinyl)methoxy]phenyl]-1-butane sulfonamide]?
**A.** % Inhibition (Statistical Average), Overflow Volume at 1 min. ([1]; 50 mg/kg intraduodenal): 08%; % Inhibition (Statistical Average), Overflow Volume at 3 min. ([1]; 50 mg/kg intraduodenal): 41%; % Inhibition (Statistical Average), Overflow Volume at 5 min. ([1]; 50 mg/kg intraduodenal): 41%; % Inhibition at 100 μm (TxB2 synthesis) [2]: 73%; IC50 [5]: 2.1 µM; IC50 [4]: 1.6 µM

**Q.** Which results are given for O=S(=O)(Nc1cccc(OCc2ccc3ccccc3n2)c1)C(F)(F)F [Example 3, N-[3-[(2-Quinolinyl)methoxy]phenyl]trifluoromethane sulfonamide]?
**A.** % Inhibition ([1]; 25 mg/kg administered intragastrically): 98%; ED50 ([1]; Cavia porcellus, po, administered intragastrically, LTD4 induced bronchospasm, read-out: IC50 (the source's name)): 0.1 mg/kg; % Inhibition ([6]; 25 mg/kg intragastric): 97%; ED50 ([6]; Cavia porcellus, 10 min, intragastric, read-out: IC50 (the source's name)): 0.6 mg/kg
